System: 188146-221-R-J1-PDC complex spheroid viability
Experiment: Anticancer human tumor 188146-221-R-J1-PDC patient-derived colon adenocarcinoma cell line growth inhibition [POLQ]
Settings: for IC50: curve of first compound; for viability, T/C: stronger effect = lower value
Outline: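 Complex spheroid viability model combining PDC tumour cells with endothelial (HUVEC) and MSC stromal cells. Novobiocin, ART-558 or RP6685 were tested singly and in combination with standard and investigational anticancer drugs. Each was titrated in half-log steps from near clinical Cmax, or from 10 microM where Cmax was unknown.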

[1] = second compound 0.0316 µM, first compound 0.0316 µM
[2] = second compound 0.0316 µM, first compound 0.1 µM
[3] = second compound 0.0316 µM, first compound 0.316 µM
[4] = second compound 0.0316 µM, first compound 1 µM
[5] = second compound 0.1 µM, first compound 0.0316 µM
[6] = second compound 0.1 µM, first compound 0.1 µM
[7] = second compound 0.1 µM, first compound 0.316 µM
[8] = second compound 0.1 µM, first compound 1 µM
[9] = second compound 0.316 µM, first compound 0.0316 µM
[10] = second compound 0.316 µM, first compound 0.1 µM
[11] = second compound 0.316 µM, first compound 0.316 µM
[12] = second compound 0.316 µM, first compound 1 µM
[13] = second compound 1 µM, first compound 0.0316 µM
[14] = second compound 1 µM, first compound 0.1 µM
[15] = second compound 1 µM, first compound 0.316 µM
[16] = second compound 1 µM, first compound 1 µM
[17] = second compound 3.16 µM, first compound 0.0316 µM
[18] = second compound 3.16 µM, first compound 0.1 µM
[19] = second compound 3.16 µM, first compound 0.316 µM
[20] = second compound 3.16 µM, first compound 1 µM
[21] = second compound 10 µM, first compound 0.0316 µM
[22] = second compound 10 µM, first compound 0.1 µM
[23] = second compound 10 µM, first compound 0.316 µM
[24] = second compound 10 µM, first compound 1 µM
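Further: spheroids exposed to compounds for seven days.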
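Wherever viability, T/C is given: 100% = DMSO vehicle control viability.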

C=CCn1c(=O)c2cnc(Nc3ccc(N4CCN(C)CC4)cc3)nc2n1-c1cccc(C(C)(C)O)n1 + Nc1ccc(C#CCN(C(=O)Cc2ncc(C(F)(F)F)cc2C(F)(F)F)c2ccc(F)cc2)nn1 was tested, and the IC50 (second compound 0.0316 µM) was > 1000 nM, the IC50 (second compound 0.1 µM) was > 1000 nM and the IC50 (second compound 0.316 µM) was > 1000 nM. The IC50 (second compound 1 µM) was > 1000 nM, the IC50 (second compound 3.16 µM) was > 1000 nM and the IC50 (second compound 10 µM) was 788 nM. The viability, T/C (second compound 0.0316 µM, first compound 0.00316 µM) was 112%, the viability, T/C (second compound 0.0316 µM, first compound 0.01 µM) was 100% and the viability, T/C [1] was 98.6%. It also gave a viability, T/C [2] of 100%, a viability, T/C [3] of 102% and a viability, T/C [4] of 55.6%. It also gave a viability, T/C (second compound 0.1 µM, first compound 0.00316 µM) of 111%, a viability, T/C (second compound 0.1 µM, first compound 0.01 µM) of 97% and a viability, T/C [5] of 119%. The viability, T/C [6] was 117%, the viability, T/C [7] was 109% and the viability, T/C [8] was 57.1%. For the same compound, the viability, T/C (second compound 0.316 µM, first compound 0.00316 µM) was 115%, the viability, T/C (second compound 0.316 µM, first compound 0.01 µM) was 104% and the viability, T/C [9] was 115%. The viability, T/C [10] was 111%, the viability, T/C [11] was 84.6% and the viability, T/C [12] was 50.6%. The viability, T/C (second compound 1 µM, first compound 0.00316 µM) was 119%, the viability, T/C (second compound 1 µM, first compound 0.01 µM) was 106% and the viability, T/C [13] was 100%. For the same compound, the viability, T/C [14] was 122%, the viability, T/C [15] was 101% and the viability, T/C [16] was 55.9%. It also gave a viability, T/C (second compound 3.16 µM, first compound 0.00316 µM) of 107%, a viability, T/C (second compound 3.16 µM, first compound 0.01 µM) of 110% and a viability, T/C [17] of 114%. It also gave a viability, T/C [18] of 110%, a viability, T/C [19] of 108% and a viability, T/C [20] of 52.1%. For the same compound, the viability, T/C (second compound 10 µM, first compound 0.00316 µM) was 114%, the viability, T/C (second compound 10 µM, first compound 0.01 µM) was 114% and the viability, T/C [21] was 104%. It also gave a viability, T/C [22] of 110%, a viability, T/C [23] of 98.4% and a viability, T/C [24] of 37.2%.

For CC(C)n1c(=O)n(C)c2cnc3cc(F)c(-c4ccc(OCCCN5CCCCC5)nc4)cc3c21 + Nc1ccc(C#CCN(C(=O)Cc2ncc(C(F)(F)F)cc2C(F)(F)F)c2ccc(F)cc2)nn1, the IC50 (second compound 0.0316 µM) was > 10000 nM, the IC50 (second compound 0.1 µM) was > 10000 nM and the IC50 (second compound 0.316 µM) was > 10000 nM. For the same compound, the IC50 (second compound 1 µM) was > 10000 nM, the IC50 (second compound 3.16 µM) was > 10000 nM and the IC50 (second compound 10 µM) was > 10000 nM. The viability, T/C [1] was 87.3%, the viability, T/C [2] was 106% and the viability, T/C [3] was 95.4%. The viability, T/C [4] was 97.9%, the viability, T/C (second compound 0.0316 µM, first compound 3.16 µM) was 83.6% and the viability, T/C (second compound 0.0316 µM, first compound 10 µM) was 80.7%. It also gave a viability, T/C [5] of 101%, a viability, T/C [6] of 107% and a viability, T/C [7] of 94.9%. It also gave a viability, T/C [8] of 92.2%, a viability, T/C (second compound 0.1 µM, first compound 3.16 µM) of 92.6% and a viability, T/C (second compound 0.1 µM, first compound 10 µM) of 83.7%. For the same compound, the viability, T/C [9] was 94.8%, the viability, T/C [10] was 94.7% and the viability, T/C [11] was 89.4%. The viability, T/C [12] was 96.8%, the viability, T/C (second compound 0.316 µM, first compound 3.16 µM) was 103% and the viability, T/C (second compound 0.316 µM, first compound 10 µM) was 80.9%. The viability, T/C [13] was 104%, the viability, T/C [14] was 101% and the viability, T/C [15] was 88%. The viability, T/C [16] was 88.9%, the viability, T/C (second compound 1 µM, first compound 3.16 µM) was 93.7% and the viability, T/C (second compound 1 µM, first compound 10 µM) was 86.9%. The viability, T/C [17] was 99%, the viability, T/C [18] was 98.3% and the viability, T/C [19] was 99.5%. It also gave a viability, T/C [20] of 84.2%, a viability, T/C (second compound 3.16 µM, first compound 3.16 µM) of 95.3% and a viability, T/C (second compound 3.16 µM, first compound 10 µM) of 87.8%. For the same compound, the viability, T/C [21] was 105%, the viability, T/C [22] was 95.5% and the viability, T/C [23] was 98.4%. It also gave a viability, T/C [24] of 96.6%, a viability, T/C (second compound 10 µM, first compound 3.16 µM) of 97.9% and a viability, T/C (second compound 10 µM, first compound 10 µM) of 84.1%.

— PubChem BioAssay AID1963851 (Molecular Pharmacology Branch, DTP, NCI, 2024)
